Assay [1] has as its system FUS protein aggregates in SH-SY5Y cells. Put plainly: FUS protein aggregates in heat-shocked SH-SY5Y cell model overexpressing FUS. Format: cell-based. Particulars: heat shock 42° C. 1 hour, 1 μg polypeptide-plasmid.
Source text: Polypeptides RJK001˜RJK004 and control polypeptides RJK005˜RJK007 were transfected into the SH-SY5Y cell model overexpressing FUS-mCherry after heat stimulation. The staining of G3BP1 represents the stress granule.
Polypeptides RJG001˜RJG003 and control polypeptide RJK005 were transfected into the SH-SY5Y cell model overexpressing FUS-mCherry after heat stimulation. The staining of G3BP1 represents the stress granule.
(§1) An SH-SY5Y cell model that overexpresses FUS-GFP protein or TDP-43-mCherry protein was generated using the following steps:
SH-SY5Y cells were cultured in DMEM/F12 medium containing 10% fetal bovine serum in a 37° C., 5% carbon dioxide incubator. […]
(§2) The SH-SY5Y cell model (initially cultured at 37° C.) transfected with the FUS plasmid according to Example 2 was placed in a 42° C. incubator for 1 hour for heat shock treatment to cause FUS protein aggregation. […] Laser confocal fluorescence microscope was used to observe the accumulation of overexpressed FUS in SH-SY5Y cells.
as §2

Assay [2] relates to TIA1 protein aggregates in SH-SY5Y cells. Put plainly: TIA1 protein aggregates in heat-shocked SH-SY5Y cell model. The format is cell-based. The conditions noted are these: heat shock 42° C. 1 hour, 1 μg polypeptide-plasmid.
For assay [3], the system named is TDP-43 protein aggregates in SH-SY5Y cells. Put plainly: TDP-43 protein aggregates in heat-shocked SH-SY5Y cell model overexpressing TDP-43-mCherry. Format: cell-based. The conditions noted are these: SH-SY5Y overexpressing TDP-43-mCherry, heat shock 42° C. 1 hour, 1 μg polypeptide-plasmid. How it is done: Polypeptides RJK001˜RJK004 and control polypeptides RJK005˜RJK007 were transfected into the SH-SY5Y cell model overexpressing TDP-43-mCherry after heat stimulation. The staining of G3BP1 represents the stress granule.
as §1
SH-SY5Y cells were cultured in DMEM/F12 medium containing 10% fetal bovine serum in a 37° C., 5% carbon dioxide incubator. After the cell confluence reaches 80%, the culture medium was removed using a vacuum pump or pipette. The cells were washed once with PBS. Add trypsin-EDTA (0.05%) to the culture dish and incubate it in a 37° C. cell incubator for 1 min. Add twice the volume of culture medium to stop the digestion, and gently blow the cells to suspend the cells into a uniform cell suspension. Add the cell suspension to a 15 mL centrifuge tube and centrifuge at 1200 rpm for 3 minutes. Discard the supernatant and resuspend the cells in fresh complete medium. […]
The SH-SY5Y cell model (initially cultured at 37° C.) transfected with the TDP-43 plasmid prepared according to Example 2 was placed in a 42° C. incubator for 1 hour for heat shock treatment to cause the TDP43 protein to separate and aggregate. […] Laser confocal fluorescence microscopy was used to observe the accumulation of TDP-43 and cell-endogenous G3BP1 in SH-SY5Y cells.

In assay [4] the test system is FUS-GFP protein aggregates in motor neurons. Put plainly: FUS-GFP protein aggregates in primary cultured motor neurons, live imaging. Format: cell-based, rat. Particulars: 20 μM polypeptide. How it is done: Real-time imaging technology using fluorescence microscope was used to observe the cell culture. […] The left 2-3 images are the microscopic images when the polypeptides were just added (0 min); the middle images are the microscopic images at different time points (30 minutes, 60 minutes, 90 minutes) after the polypeptides were added, and the right image is the microscopic image at 120 minutes after adding the polypeptides.
(§3) An ALS rat motor neuron model that can be used to overexpress FUS-GFP protein and SOD1 (G93A) protein was generated using the following steps.
After the E13.5 rat is anesthetized, open the abdominal cavity and take out the uterus to a 10 cm dish. Add HBSS, use scissors and tweezers to remove the embryos to a new 10 cm dish. Separate the head and trunk of the embryo and move to anatomical spinal cord under a stereoscope. With the torso facing up, fix the hind limbs with a microscopic forceps. After finding the translucent spine, use another microscopic forceps to lift the skin forward and upward, and then open the connection on the side of the spine. Pick up the spine from the tail. Fix the head of the spine with the back side facing up and pick up the membrane. Turn the abdomen up, peel off the membrane, most of the DRG was removed. Remove the DRG attached to the spinal cord and move to a new 6 cm dish. Use micro tweezers to move the spinal cord to a 5 ml centrifuge tube, use tweezers to crush it to a size of 1 mm, add 1× Trypsin (diluted by HBSS), and place in a 37° C. incubator for 25-30 minutes. Use a 1 ml pipette tip to suck the tissue mass into the preheated 3 ml MN Medium and blow away the tissue mass. Pass the 40 um filer, transfer the cells to a 5 ml centrifuge tube, centrifuge at 400 g, 5 min to remove the supernatant. Resuspend the cells in 3 mlMN medium, take 10 ul and count. […]
A rat motor neuron model of ALS pathogenic FUS protein aggregates was prepared according to Example 4. […] The dissolution effect of the polypeptides on proteins aggregates in motor neurons was recorded with live images using laser confocal fluorescence microscope. […]

The test system of assay [5] is SOD1(G93A)-GFP protein aggregates in motor neurons. Put plainly: SOD1(G93A) protein aggregates in primary cultured motor neurons, live imaging. Format: cell-based, rat. The conditions noted are these: 20 μM polypeptide. The method, then: Real-time imaging technology using fluorescence microscope was used to observe the cell culture. The left panel is the polypeptide RJK001; the right panel is the control polypeptide RJK005. […] The right image in each panel is the microscopic image at 24 hours after adding the polypeptides.
as §3
After the E13.5 rat is anesthetized, open the abdominal cavity and take out the uterus to a 10 cm dish. Add HBSS, use scissors and tweezers to remove the embryos to a new 10 cm dish. Separate the head and trunk of the embryo and move to anatomical spinal cord under a stereoscope. With the torso facing up, fix the hind limbs with a microscopic forceps. After finding the translucent spine, use another microscopic forceps to lift the skin forward and upward, and then open the connection on the side of the spine. Pick up the spine from the tail. Fix the head of the spine with the back side facing up and pick up the membrane. Turn the abdomen up, peel off the membrane, most of the DRG was removed. […]
A rat motor neuron model of ALS pathogenic SOD1 (G93A) protein aggregates was prepared according to Example 4. […] The dissolution effect of the polypeptides on proteins aggregates in motor neurons was recorded with live images using laser confocal fluorescence microscope. […]

Entries after “also recorded” stand apart in the source; their conditions may differ.

On to “TEPQEESEEEVEEPEERQQTPEVVPDDSGTFYDQTVSNDLE [RJK001, polypeptide capable of dissolving protein aggregates]”, for which the “dissolution of FUS protein aggregates / number of phase-separated droplets of FUS protein in SH-SY5Y cells versus control” value in assay [1] is given as “significantly less; also recorded: significant dissolving effect”. Further, the “dissolution of TIA1 protein aggregates / number of phase-separated droplets of TIA1 protein in SH-SY5Y cells versus control” value in assay [2] is recorded as “significantly less; also recorded: significant dissolving effect”. Besides, in assay [3], the “dissolution of TDP-43 protein aggregates / number of phase-separated droplets of TDP-43 protein in SH-SY5Y cells versus control” value is on record as “significantly less; also recorded: significant dissolving effect”. In addition, in assay [4] (90 minutes), the “aggregation of ALS pathogenic FUS protein in motor neurons at 90 minutes after adding polypeptide” value is “began to dissolve significantly”. The “aggregation of ALS pathogenic FUS protein in motor neurons after 120 minutes” value in assay [4] (120 minutes) is “essentially dissolved”. Moreover, in assay [4] (motor neurons, day 10 in vitro, up to 120 minutes), the “dissolving effect on FUS protein aggregates in motor neurons” value is “significant dissolving effect; also recorded: enhanced the dissolution”. For the same sequence, the “aggregation of SOD1 (G93A) protein in motor neurons at 24 hours after adding polypeptide” value in assay [5] is given as “dissolved significantly”. Further, the “dissolving effect on SOD1 (G93A) protein aggregates in motor neurons” value in assay [5] (motor neurons, day 10 in vitro, 24 hours) is on record as “significant dissolving effect; also recorded: enhanced the dissolution”.

The values are drawn from patent publication US12435109B2, “Compositions and methods for dissolving protein aggregates” (REJUKON BIOPHARM INC., priority 2020, dated 2025).
